Test results taken from US9650395B2, “Antibacterial compounds and methods for use” (PTC Therapeutics, Inc., priority 2011, dated 2017).
≈ marks a conversion by molar mass, not a printed value. Where a name gives a salt, the structure may show the parent alone. Read-outs that look alike come from different tables or passages of the source.

Key:
[1] = tested on: quinolone resistant E. coli LZ3111; assay: Antibacterial activity, MIC, quinolone resistant E. coli LZ3111; assay type: cell-based, Escherichia coli; conditions: Escherichia coli, read-out: MIC, LZ3111
Text: (§1) The antibacterial activity from a microbroth dilution method may be presented as the minimum inhibitory concentration (MIC in […]). The MIC value is the lowest concentration of a drug which prevents macroscopically visible bacterial growth under test conditions.
Mutations in these regions are known to confer a high level resistance to the quinolone class of antibiotics.

[2] = tested on: super sensitive Gram-negative Escherichia coli (E. coli) BAS849; assay: Antibacterial activity, microbroth dilution MIC, E. coli BAS849; assay type: cell-based; conditions: Escherichia coli, read-out: MIC, BAS849
[3] = tested on: E. coli ELZ4000 (MDR clinical isolate); assay: Antibacterial activity, MIC, MDR E. coli ELZ4000; assay type: cell-based, Escherichia coli; conditions: Escherichia coli, read-out: MIC ELZ4000
[4] = tested on: Klebsiella pneumoniae (K. pneumoniae) 35657; assay: Antibacterial activity, MIC, K. pneumoniae 35657; assay type: cell-based; conditions: Klebsiella pneumoniae
[5] = tested on: Pseudomonas aeruginosa (P. aeruginosa) 27853; assay: Antibacterial activity, MIC, P. aeruginosa 27853; assay type: cell-based; conditions: Pseudomonas aeruginosa, read-out: MIC 27853
Text: as §1
Antibacterial activity of test compounds against the Gram-negative bacterium Pseudomonas aeruginosa (P. aeruginosa) 27853 is shown in Table 5.

[6] = tested on: control Gram-negative E. coli 25922 strain; assay: Antibacterial activity, microbroth dilution MIC, E. coli 25922; assay type: cell-based, Escherichia coli; conditions: Escherichia coli; E. coli 25922, microbroth dilution; read-out: MIC, 25922
[7] = tested on: E. coli ELZ4251 (MDR clinical isolate); assay: Antibacterial activity, MIC, MDR E. coli ELZ4251; assay type: cell-based, Escherichia coli; conditions: Escherichia coli, read-out: MIC ELZ4251
[8] = tested on: Gram-positive Staphylococcus aureus (S. aureus) 29213; assay: Antibacterial activity, microbroth dilution MIC, S. aureus 29213; assay type: cell-based; conditions: Staphylococcus aureus; S. aureus 29213, microbroth dilution; read-out: MIC, 29213
[9] = tested on: Haemophilus influenzae (H. influenzae) 49247; assay: Antibacterial activity, MIC, H. influenzae 49247; assay type: cell-based; conditions: Haemophilus influenzae, read-out: MIC 49247
Outline: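 Antibacterial activity against the Gram-negative organism Haemophilus influenzae strain 49247 was measured by microbroth dilution. The minimum inhibitory concentration (MIC) was taken as the lowest drug concentration that stopped bacterial growth from being visible to the naked eye under the test conditions.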

[10] = tested on: Moraxella catarrhalis (M. catarrhalis) 25238; assay: Antibacterial activity, MIC, M. catarrhalis 25238; assay type: cell-based; conditions: Moraxella catarrhalis, read-out: MIC 25238
[11] = tested on: Acinetobacter baumannii (A. baumannii) BAA747; assay: Antibacterial activity, MIC, A. baumannii BAA747; assay type: cell-based; conditions: Acinetobacter baumannii
[12] = tested on: Neisseria meningitidis (N. meningitidis) 13090; assay: Antibacterial activity, MIC, N. meningitidis 13090; assay type: cell-based; conditions: Neisseria meningitidis, read-out: MIC 13090
[13] = E. coli BAS849, microbroth dilution
[14] = E. coli ELZ4000, MDR clinical isolate
[15] = E. coli ELZ4251, MDR clinical isolate
[16] = A. baumannii BAA747, read-out: MIC BAA747

Structure (SMILES)	MIC [1] [µg/mL]	MIC [2, 13] [µg/mL]	MIC [3, 14] [µg/mL]	MIC [4] [µg/mL]	MIC ([5]; P. aeruginosa 27853) [µg/mL]	MIC [6] [µg/mL]	MIC [7, 15] [µg/mL]	MIC [8] [µg/mL]	MIC [9] [µg/mL]	MIC [10] [µg/mL]	MIC [2] [µg/mL]	MIC ([11]; BAA747, read-out: MIC BAA747) [µg/mL]	MIC [3] [µg/mL]	MIC [12] [µg/mL]	MIC [5] [µg/mL]	MIC [7] [µg/mL]	MIC ([9]; H. influenzae 49247) [µg/mL]	MIC ([10]; M. catarrhalis 25238) [µg/mL]	MIC ([12]; N. meningitidis 13090) [µg/mL]	MIC [11, 16] [µg/mL]
Cc1cc(C(=O)O)c(=O)[nH]c1-c1ccc(N(C)C)cc1 [Cpd 4, 6-[4-(dimethylamino)phenyl]-5-methyl-2-oxo-1,2-dihydropyridine-3-carboxylic acid]	12.5 to 150 (≈ 45.9 to 551 µM)	< 1	12.5 to 150 (≈ 45.9 to 551 µM)	3.5 to 12.5 (≈ 12.9 to 45.9 µM)	12.5 to 150 (≈ 45.9 to 551 µM)	12.5 to 150 (≈ 45.9 to 551 µM)	12.5 to 150 (≈ 45.9 to 551 µM)	12.5 to 150 (≈ 45.9 to 551 µM)	–	–	–	–	–	–	–	–	–	–	–	–
CCc1cc(C(=O)O)c(=O)[nH]c1-c1ccc(N2CCNCC2)c(F)c1.O=C(O)C(F)(F)F [Cpd 92, 5-ethyl-6-[3-fluoro-4-(piperazin-1-yl)phenyl]-2-oxo-1,2-dihydropyridine-3-carboxylic acid trifluoroacetate]	12.5 to 150	–	–	–	–	12.5 to 150	–	12.5 to 150	1 to 3.5	12.5 to 150	12.5 to 150	12.5 to 150	12.5 to 150	3.5 to 12.5	12.5 to 150	12.5 to 150	–	–	–	–
CC(C)c1cc(C(=O)O)c(=O)[nH]c1-c1ccc(N(C)C)cc1 [Cpd 95, 6-[4-(dimethylamino)phenyl]-2-oxo-5-(propan-2-yl)-1,2-dihydropyridine-3-carboxylic acid]	12.5 to 150 (≈ 41.6 to 499 µM)	< 1	12.5 to 150 (≈ 41.6 to 499 µM)	12.5 to 150 (≈ 41.6 to 499 µM)	12.5 to 150 (≈ 41.6 to 499 µM)	3.5 to 12.5 (≈ 11.7 to 41.6 µM)	12.5 to 150 (≈ 41.6 to 499 µM)	12.5 to 150 (≈ 41.6 to 499 µM)	–	–	–	–	–	–	–	–	< 1	< 1	< 1	–
CCc1cc(C(=O)O)c(=O)[nH]c1-c1ccc(N(CC)CC)cc1 [Cpd 97, 6-[4-(diethylamino)phenyl]-5-ethyl-2-oxo-1,2-dihydropyridine-3-carboxylic acid]	12.5 to 150 (≈ 39.8 to 477 µM)	< 1	12.5 to 150 (≈ 39.8 to 477 µM)	3.5 to 12.5 (≈ 11.1 to 39.8 µM)	12.5 to 150 (≈ 39.8 to 477 µM)	3.5 to 12.5 (≈ 11.1 to 39.8 µM)	12.5 to 150 (≈ 39.8 to 477 µM)	12.5 to 150 (≈ 39.8 to 477 µM)	–	–	–	–	–	–	–	–	< 1	< 1	< 1	–
CCc1cc(C(=O)O)c(=O)[nH]c1-c1ccc(N2CCCC2)cc1 [Cpd 99, 5-ethyl-2-oxo-6-[4-(pyrrolidin-1-yl)phenyl]-1,2-dihydropyridine-3-carboxylic acid]	12.5 to 150 (≈ 40 to 480 µM)	< 1	12.5 to 150 (≈ 40 to 480 µM)	3.5 to 12.5 (≈ 11.2 to 40 µM)	3.5 to 12.5 (≈ 11.2 to 40 µM)	< 1	12.5 to 150 (≈ 40 to 480 µM)	1 to 3.5 (≈ 3.2 to 11.2 µM)	–	–	–	–	–	–	–	–	< 1	< 1	< 1	–
CCc1c(-c2ccc(N3CCCC3)cc2)[nH]c(=O)c(C(=O)O)c1O [Cpd 100, 5-ethyl-4-hydroxy-2-oxo-6-[4-(pyrrolidin-1-yl)phenyl]-1,2-dihydropyridine-3-carboxylic acid]	12.5 to 150 (≈ 38.1 to 457 µM)	< 1	12.5 to 150 (≈ 38.1 to 457 µM)	12.5 to 150 (≈ 38.1 to 457 µM)	12.5 to 150 (≈ 38.1 to 457 µM)	3.5 to 12.5 (≈ 10.7 to 38.1 µM)	12.5 to 150 (≈ 38.1 to 457 µM)	1 to 3.5 (≈ 3.05 to 10.7 µM)	–	–	–	–	–	–	–	–	< 1	< 1	< 1	–
CCc1cc(C(=O)O)c(=O)[nH]c1-c1ccc(-n2cccc2)cc1 [Cpd 101, 5-ethyl-2-oxo-6-[4-(1H-pyrrol-1-yl)phenyl]-1,2-dihydropyridine-3-carboxylic acid]	12.5 to 150 (≈ 40.5 to 486 µM)	< 1	12.5 to 150 (≈ 40.5 to 486 µM)	3.5 to 12.5 (≈ 11.4 to 40.5 µM)	12.5 to 150 (≈ 40.5 to 486 µM)	12.5 to 150 (≈ 40.5 to 486 µM)	12.5 to 150 (≈ 40.5 to 486 µM)	12.5 to 150 (≈ 40.5 to 486 µM)	–	–	–	–	–	–	–	–	< 1	< 1	< 1	–
CCc1cc(C(=O)O)c(=O)[nH]c1-c1ccc(N2Cc3cccnc3C2)cc1 [Cpd 192, 6-[4-(5,7-dihydro-6H-pyrrolo[3,4-b]pyridin-6-yl)phenyl]-5-ethyl-2-oxo-1,2-dihydropyridine-3-carboxylic acid]	12.5 to 150 (≈ 34.6 to 415 µM)	< 1	–	12.5 to 150 (≈ 34.6 to 415 µM)	12.5 to 150 (≈ 34.6 to 415 µM)	3.5 to 12.5 (≈ 9.68 to 34.6 µM)	–	3.5 to 12.5 (≈ 9.68 to 34.6 µM)	–	–	–	–	–	–	–	–	–	–	–	12.5 to 150 (≈ 34.6 to 415 µM)
CCc1cc(C(=O)O)c(=O)[nH]c1-c1ccc(N2CCC(C3(NCc4ccccc4)CC3)C2)cc1.O=C(O)C(F)(F)F (stereo not shown) [Cpd 217, 6-(4-{3-[1-(benzylamino)cyclopropyl]pyrrolidin-1-yl}phenyl)-5-ethyl-2-oxo-1,2-dihydropyridine-3-carboxylic acid trifluoroacetate]	–	–	–	3.5 to 12.5	12.5 to 150	3.5 to 12.5	–	3.5 to 12.5	–	–	< 1	–	–	–	–	–	–	–	–	12.5 to 150
CCc1cc(C(=O)O)c(=O)[nH]c1-c1ccc(N2CC3CCCCC3(C#N)C2)cc1 (stereo not shown) [Cpd 219, 6-[4-(3a-cyanooctahydro-2H-isoindol-2-yl)phenyl]-5-ethyl-2-oxo-1,2-dihydropyridine-3-carboxylic acid]	12.5 to 150 (≈ 31.9 to 383 µM)	< 1	–	12.5 to 150 (≈ 31.9 to 383 µM)	12.5 to 150 (≈ 31.9 to 383 µM)	12.5 to 150 (≈ 31.9 to 383 µM)	–	12.5 to 150 (≈ 31.9 to 383 µM)	–	–	–	–	–	–	–	–	–	–	–	12.5 to 150 (≈ 31.9 to 383 µM)
CCc1cc(C(=O)O)c(=O)[nH]c1-c1ccc(N2CC[C@@H](O)C2)cc1F [Cpd 225, 5-ethyl-6-{2-fluoro-4-[(3R)-3-hydroxypyrrolidin-1-yl]phenyl}-2-oxo-1,2-dihydropyridine-3-carboxylic acid]	12.5 to 150 (≈ 36.1 to 433 µM)	< 1	–	1 to 3.5 (≈ 2.89 to 10.1 µM)	12.5 to 150 (≈ 36.1 to 433 µM)	3.5 to 12.5 (≈ 10.1 to 36.1 µM)	–	12.5 to 150 (≈ 36.1 to 433 µM)	–	–	–	–	–	–	–	–	–	–	–	12.5 to 150 (≈ 36.1 to 433 µM)
CCc1cc(C(=O)O)c(=O)[nH]c1-c1ccc(N2C[C@@H]3[C@@H](N)[C@@H]3C2)cc1F [Cpd 231, 6-{4-[(1R,5S,6s)-6-amino-3-azabicyclo[3.1.0]hex-3-yl]-2-fluorophenyl}-5-ethyl-2-oxo-1,2-dihydropyridine-3-carboxylic acid trifluoroacetate]	12.5 to 150	–	–	1 to 3.5	12.5 to 150	1 to 3.5	–	12.5 to 150	–	–	< 1	–	–	–	–	–	–	–	–	12.5 to 150
CCc1c(-c2ccc(N3CCC(C4(N(C)C)CC4)C3)cc2)[nH]c(=O)c(C(=O)O)c1O (stereo not shown) [Cpd 247, 6-(4-{3-[1-(dimethylamino)cyclopropyl]pyrrolidin-1-yl}phenyl)-5-ethyl-4-hydroxy-2-oxo-1,2-dihydropyridine-3-carboxylic acid]	12.5 to 150 (≈ 30.4 to 365 µM)	< 1	–	3.5 to 12.5 (≈ 8.51 to 30.4 µM)	12.5 to 150 (≈ 30.4 to 365 µM)	3.5 to 12.5 (≈ 8.51 to 30.4 µM)	–	3.5 to 12.5 (≈ 8.51 to 30.4 µM)	–	–	–	–	–	–	–	–	–	–	–	12.5 to 150 (≈ 30.4 to 365 µM)
